Measured values as given in ChEMBL document CHEMBL4145517, “Advances on photodynamic therapy of melanoma through novel ring-fused 5,15-diphenylchlorins” (Eur J Med Chem, 2018).
The source made the active and inactive calls. The calls are words filed in the database; no cut-off is given here.

Assays:
A-375 [1] = assay: Cell cycle arrest in human A375 cells assessed as accumulation at pre-G0 phase up to 500 nM preincubated for 24 hrs followed by exposure to light with fluence rate of 7.5 mW/cm2 at 10 J and measured after 24 hrs by propidium iodide/RNase-staining based flow cytometric analysis; type: functional
A-375 [2] = assay: Induction of apoptosis in human A375 cells assessed as decrease in living cells at 500 nM preincubated for 24 hrs followed by exposure to light with fluence rate of 7.5 mW/cm2 at 10 J and measured after 24 hrs by Annexin-V/propidium iodide stainin-based FACS analysis; type: functional
A-375 [3] = assay: Photocytotoxicity against human A375 cells at 5 to 50 nM preincubated for 24 hrs followed by exposure to light with fluence rate of 7.5 mW/cm2 until 20J and measured after 24 hrs by MTT assay; type: functional, cell-based
A-375 [4] = assay: Phototoxicity against human A375 cells assessed as reduction in cell viability up to 500 nM preincubated for 24 hrs followed by exposure to light with fluence rate of 7.5 mW/cm2 at 10 J and measured after 24 hrs in presence of hydroxyl radical scavenger D-mannitol by MTT assay; type: functional, cell-based
A-375 [5] = assay: Photocytotoxicity against human A375 cells at 5 to 500 nM preincubated for 24 hrs followed by exposure to light with fluence rate of 7.5 mW/cm2 until 5 to 10 J and measured after 24 hrs by MTT assay; type: functional, cell-based
A-375 [6] = assay: Disruption of mitochondrial membrane potential in human A375 cells at 50 nM preincubated for 24 hrs followed by exposure to light with fluence rate of 7.5 mW/cm2 at 10 J and measured after 24 hrs by JC-1 staining-based assay; type: functional, cell-based
A-375 [7] = assay: Photocytotoxicity against human A375 cells preincubated for 24 hrs followed by exposure to light with fluence rate of 7.5 mW/cm2 until 10 J measured after 24 hrs by MTT assay; type: functional, cell-based
A-375 [8] = assay: Decrease in intracellular peroxides generation in human A375 cells at 500 nM preincubated for 24 hrs followed by exposure to light with fluence rate of 7.5 mW/cm2 at 10 J and measured after 24 hrs by DCFH2-DA staining-based fluorescence analysis; type: functional, cell-based
A-375 [9] = assay: Photocytotoxicity against human A375 cells assessed as decrease in cell viability by measuring protein content at >= 50 nM preincubated for 24 hrs followed by exposure to light with fluence rate of 7.5 mW/cm2 at 10 J and measured after 24 hrs by sulforhodamine B assay; type: functional, cell-based
A-375 [10] = assay: Phototoxicity against human A375 cells assessed as reduction in cell viability up to 500 nM preincubated for 24 hrs followed by exposure to light with fluence rate of 7.5 mW/cm2 at 10 J and measured after 24 hrs in presence of singlet oxygen scavenger sodium azide by MTT assay; type: functional, cell-based
A-375 [11] = assay: Induction of p53 expression in human A375 cells at 50 nM preincubated for 24 hrs followed by exposure to light with fluence rate of 7.5 mW/cm2 at 10 J and measured after 24 hrs by Western blot analysis; type: functional, cell-based
[12] = Dark toxicity against human A375 cells at 5 to 10 uM after 24 hrs by MTT assay; type: cell-based; details: a-375, 24 h
A-375 [13] = assay: Induction of apoptosis in human A375 cells at 50 nM preincubated for 24 hrs followed by exposure to light with fluence rate of 7.5 mW/cm2 at 10 J and measured after 24 hrs by Annexin-V/propidium iodide staining-based FACS analysis; type: functional, cell-based
A-375 [14] = assay: Increase in expression of reduced glutathione in human A375 cells up to 500 nM preincubated for 24 hrs followed by exposure to light with fluence rate of 7.5 mW/cm2 at 10 J and measured after 24 hrs by mercury orange staining-based fluorescence analysis; type: functional, cell-based
A-375 [15] = assay: Decrease in intracellular superoxide anion generation in human A375 cells at 500 nM preincubated for 24 hrs followed by exposure to light with fluence rate of 7.5 mW/cm2 at 10 J and measured after 24 hrs by dihydroethidium staining-based fluorescence analysis; type: functional, cell-based
[16] = Drug uptake in human A375 cells preincubated for 24 hrs followed by exposure to light with fluence rate of 7.5 mW/cm2 at 10 J measured after 24 hrs by fluorescence spectroscopic analysis; type: ADME, cell-based; details: a-375, 24 h
[17] = Dark toxicity against human HFF1 cells at 5 to 10 uM after 24 hrs by MTT assay; type: cell-based; details: hff-1, 24 h
A-375 [18] = assay: Induction of apoptosis in human A375 cells assessed as increase in necrotic cells at 50 nM preincubated for 24 hrs followed by exposure to light with fluence rate of 7.5 mW/cm2 at 10 J and measured after 24 hrs by Annexin-V/propidium iodide stainin-based FACS analysis; type: functional, cell-based
[19] = Dark toxicity against human A375 cells at 1 to 10 uM after 24 hrs by MTT assay; type: cell-based; details: a-375, 24 h
A-375 [20] = assay: Disruption of mitochondrial membrane potential in human A375 cells at 500 nM preincubated for 24 hrs followed by exposure to light with fluence rate of 7.5 mW/cm2 at 10 J and measured after 24 hrs by JC-1 staining-based assay; type: functional, cell-based
[21] = Dark toxicity against human HFF1 cells at 1 to 10 uM after 24 hrs by MTT assay; type: cell-based; details: hff-1, 24 h
A-375 [22] = assay: Cell cycle arrest in human A375 cells assessed as accumulation at G1 phase up to 500 nM preincubated for 24 hrs followed by exposure to light with fluence rate of 7.5 mW/cm2 at 10 J and measured after 24 hrs by propidium iodide/RNase-staining based flow cytometric analysis; type: functional
A-375 [23] = assay: Induction of apoptosis in human A375 cells assessed as increase in necrotic cells at 500 nM preincubated for 24 hrs followed by exposure to light with fluence rate of 7.5 mW/cm2 at 10 J and measured after 24 hrs by Annexin-V/propidium iodide stainin-based FACS analysis; type: functional, cell-based
A-375 [24] = assay: Cell cycle arrest in human A375 cells assessed as accumulation at G2/M phase up to 500 nM preincubated for 24 hrs followed by exposure to light with fluence rate of 7.5 mW/cm2 at 10 J and measured after 24 hrs by propidium iodide/RNase-staining based flow cytometric analysis; type: functional

For `OCc1nn2c(c1CO)CC1c3nc(cc4ccc([nH]4)c(-c4ccccc4)c4nc(cc5ccc([nH]5)c3-c3ccccc3)C=C4)C1C2` (stereo not drawn), the Activity (A-375 [1]) was “Active”, the Activity (A-375 [2]) was “inactive” and the Activity (A-375 [3]) was “Active”. For the same compound, the Activity (A-375 [4]) was “Active”, the Activity (A-375 [5]) was “Active” and the Activity (A-375 [6]) was “Active”. For the same compound, the IC50 (A-375 [7]) was 2.9 nM, the Activity (A-375 [8]) was “Active” and the Activity (A-375 [9]) was “Active”. The Activity (A-375 [10]) was “Active”, the Activity (A-375 [11]) was “Active” and the Activity [12] was “Toxic”. For the same compound, the Activity (A-375 [13]) was “Active”, the Activity (A-375 [14]) was “inactive” and the Activity (A-375 [15]) was “Active”. For the same compound, the Drug uptake [16] was “Dose-dependent effect” and the Activity [17] was “Toxic”.
For `COC(=O)c1nn2c(c1C(=O)OC)CC1c3nc(cc4ccc([nH]4)c(-c4ccccc4)c4nc(cc5ccc([nH]5)c3-c3ccccc3)C=C4)C1C2` (stereo not drawn), the Activity (A-375 [1]) was “Active”, the Activity (A-375 [2]) was >50% and the Activity (A-375 [3]) was “Active”. The Activity (A-375 [4]) was “Active”, the Activity (A-375 [5]) was “Active” and the Activity (A-375 [18]) was “Active”. For the same compound, the Activity (A-375 [6]) was “Active”, the IC50 (A-375 [7]) was 14.5 nM and the Activity (A-375 [8]) was “Active”. For the same compound, the Activity (A-375 [9]) was “Active”, the Activity [19] was “Non-Toxic” and the Activity (A-375 [10]) was “Active”. For the same compound, the Activity (A-375 [11]) was “Active”, the Activity (A-375 [14]) was “inactive” and the Activity (A-375 [20]) was “Active”. For the same compound, the Activity [21] was “Non-Toxic”, the Activity (A-375 [15]) was “Active” and the Drug uptake [16] was “Dose-dependent effect”.
For `COC(=O)c1nn2c(c1C(=O)OC)CC1c3cc4ccc([nH]4)c(-c4ccccc4)c4nc(cc5ccc([nH]5)c(-c5ccccc5)c(n3)C1C2)C=C4` (stereo not drawn), the Activity (A-375 [1]) was “Active”, the Activity (A-375 [2]) was >50% and the Activity (A-375 [3]) was “Active”. For the same compound, the Activity (A-375 [4]) was “Active”, the Activity (A-375 [5]) was “Active” and the Activity (A-375 [6]) was “Active”. For the same compound, the IC50 (A-375 [7]) was 14.3 nM, the Activity (A-375 [8]) was “Active” and the Activity (A-375 [9]) was “Active”. For the same compound, the Activity [19] was “Non-Toxic”, the Activity (A-375 [10]) was “inactive” and the Activity (A-375 [11]) was “Active”. For the same compound, the Activity (A-375 [13]) was “Active”, the Activity (A-375 [14]) was “inactive” and the Activity [21] was “Non-Toxic”. The Activity (A-375 [15]) was “Active” and the Drug uptake [16] was “Dose-dependent effect”.
For `OCc1nn2c(c1CO)CC1c3cc4ccc([nH]4)c(-c4ccccc4)c4nc(cc5ccc([nH]5)c(-c5ccccc5)c(n3)C1C2)C=C4` (stereo not drawn), the Activity (A-375 [1]) was “Active”, the Activity (A-375 [2]) was >50% and the Activity (A-375 [22]) was “Active”. The Activity (A-375 [3]) was “Active”, the Activity (A-375 [4]) was “Active” and the Activity (A-375 [5]) was “Active”. The Activity (A-375 [6]) was “Active”, the IC50 (A-375 [7]) was 4.9 nM and the Activity (A-375 [8]) was “Active”. The Activity (A-375 [9]) was “Active”, the Activity [19] was “Non-Toxic” and the Activity (A-375 [10]) was “inactive”. For the same compound, the Activity (A-375 [11]) was “Active”, the Activity (A-375 [13]) was “Active” and the Activity (A-375 [14]) was “inactive”. The Activity (A-375 [20]) was “Active”, the Activity [21] was “Non-Toxic” and the Activity (A-375 [23]) was “Active”. The Activity (A-375 [24]) was “Active”, the Activity (A-375 [15]) was “Active” and the Drug uptake [16] was “Dose-dependent effect”.
